Measured values published in US20080050452A1, “METAL-CONTAINING FORMULATIONS AND METHODS OF USE” (priority 2006, published 2008).

Tests used:
Strep. pyogenes = test: Minimal bactericidal concentration (MBC) assay; assay type: cell-based, Streptococcus pyogenes
Protocol: (§1) Minimal bactericidal concentration (MBC) assay—Overnight-grown MIC plates, prepared as described in Example 16, were evaluated to determine the MIC. Culture was then sampled from wells at and near the MIC using sterile inoculating loops, and transferred to fresh MHA plates to determine if viable bacteria remained. […] The MBC was determined as the well in the MIC plate which contained the lowest concentration of silver yielding no bacterial growth on the MHA plate.

K. pneumoniae = test: Minimal bactericidal concentration (MBC) assay; assay type: cell-based, Klebsiella pneumoniae
Protocol: as §1

Staph. aureus = test: Minimal bactericidal concentration (MBC) assay; assay type: cell-based, Staphylococcus aureus
Protocol: as §1

[1] = tested on: Staphylococcus epidermidis; test: MIC assay; assay type: cell-based
Escherichia coli = test: MIC assay; assay type: cell-based
B. multivorans = test: Minimal bactericidal concentration (MBC) assay; assay type: cell-based, Burkholderia multivorans
Protocol: as §1

Burkholderia multivorans = test: MIC assay; assay type: cell-based
Klebsiella pneumoniae = test: MIC assay; assay type: cell-based
Serratia marcescens = test: MIC assay; assay type: cell-based
E. coli = test: Minimal bactericidal concentration (MBC) assay; assay type: cell-based, Escherichia coli
Protocol: as §1

Staph epidermidis = test: Minimal bactericidal concentration (MBC) assay; assay type: cell-based, Staphylococcus epidermidis
Protocol: as §1

Streptococcus pneumoniae = test: MIC assay; assay type: cell-based; settings: solutions in 0.1 M lactate buffer pH 4.0
Pseudomonas aeruginosa = test: MIC assay; assay type: cell-based; settings: for NP212 MIC: P. aeruginosa isolate NP212; for NP213 MIC: P. aeruginosa isolate NP213; for NP214 MIC: P. aeruginosa isolate NP 214
Burkholderia dolosa = test: MIC assay; assay type: cell-based
Staphylococcus aureus = test: MIC assay; assay type: cell-based; settings: for NP101 MIC: Staph aureus isolate NP101; for NP102 MIC: Staph aureus isolate NP102; for NP103 MIC: Staph aureus isolate NP103
B dolosa = test: Minimal bactericidal concentration (MBC) assay; assay type: cell-based, Burkholderia dolosa
Protocol: as §1

C. freundii = test: Minimal bactericidal concentration (MBC) assay; assay type: cell-based, Citrobacter freundii; settings: C. freundii isolate NP410
Protocol: as §1

Prot. mirabilis = test: Minimal bactericidal concentration (MBC) assay; assay type: cell-based, Proteus mirabilis; settings: Prot. mirabilis isolate NP405
Protocol: as §1

Citrobacter freundii = test: MIC assay; assay type: cell-based; settings: C. freundii isolate NP410
Enterobacter cloacae = test: MIC assay; assay type: cell-based; settings: Enterobacter cloacae
Streptococcus pyogenes = test: MIC assay; assay type: cell-based
Proteus mirabilis = test: MIC assay; assay type: cell-based; settings: Prot. mirabilis isolate NP405
Ps. aeruginosa = test: Minimal bactericidal concentration (MBC) assay; assay type: cell-based, Pseudomonas aeruginosa
Protocol: as §1

[2] = K. pneumoniae isolate NP403 (first listing)
[3] = K. pneumoniae isolate NP403 (second listing)
[4] = Staph. aureus ATCC type strain 6538
[5] = Staph. aureus ATCC type strain 700699
[6] = Staph epidermidis ATCC type strain 12228
[7] = Staph epidermidis isolate NP136
[8] = formulation type Water/Lecithin
[9] = Ps. aeruginosa ATCC type strain 27317

`O=[N+]([O-])[O-].[Ag+]` [AgNO3, silver nitrate] showed an MBC (Strep. pyogenes; Strep. pyogenes isolate NP303) of 10 parts silver per million, an MBC (Strep. pyogenes; Strep. pyogenes isolate NP304) of 21 parts silver per million and an MBC (Strep. pyogenes; Strep. pyogenes isolate NP306) of 21 parts silver per million. For the same compound, the MBC (K. pneumoniae; K. pneumoniae isolate NP401) was 3 parts silver per million, the MBC (K. pneumoniae; [2]) was 6 parts silver per million and the MBC (K. pneumoniae; [3]) was 3 parts silver per million. It also gave an MBC (K. pneumoniae; K. pneumoniae isolate NP406) of 1 parts silver per million, an MBC (Staph. aureus; [4]) of 6 parts silver per million and an MBC (Staph. aureus; [5]) of 6 parts silver per million. It also gave an MBC (Staph. aureus; Staph. aureus isolate NP101) of 11 parts silver per million, an MBC (Staph. aureus; Staph. aureus isolate NP102) of 6 parts silver per million and an MBC (Staph. aureus; Staph. aureus isolate NP103) of 6 parts silver per million. It also gave an MIC ([1]; S. epiderm (ATCC), solutions in 0.1 M lactate buffer pH 4.0) of 3 µg/mL, an MIC [1, 6] of 3 parts silver per million and an MIC [1, 7] of 3 parts silver per million. For the same compound, the MIC (Escherichia coli; E. coli (ATCC), solutions in 0.1 M lactate buffer pH 4.0) was 3 µg/mL, the MIC (Escherichia coli; E. coli ATCC type strain 8739) was 0.4 parts silver per million and the MIC (Escherichia coli; E. coli ATCC type strain 43745) was 1 parts silver per million. It also gave an MIC (Escherichia coli; E. coli isolate NP412) of 1 parts silver per million, an MBC (B. multivorans; B. multivorans isolate B1) of 3 parts silver per million and an MBC (B. multivorans; B. multivorans isolate B2) of 3 parts silver per million. It also gave an MBC (B. multivorans; B. multivorans isolate B4) of 3 parts silver per million, an MIC (Burkholderia multivorans; B. multivorans isolate B1) of 3 parts silver per million and an MIC (Burkholderia multivorans; B. multivorans isolate B2) of 3 parts silver per million. It also gave an MIC (Burkholderia multivorans; B. multivorans isolate B4) of 2 parts silver per million, an MIC (Klebsiella pneumoniae; K. pneumoniae isolate NP401) of 3 parts silver per million and an MIC (Klebsiella pneumoniae; [2]) of 6 parts silver per million. For the same compound, the MIC (Klebsiella pneumoniae; [3]) was 6 parts silver per million, the MIC (Klebsiella pneumoniae; K. pneumoniae isolate NP406) was 1 parts silver per million and the MIC (Klebsiella pneumoniae; Klebsiella pneumoniae, aerobic conditions (+)) was 3 µg/mL. For the same compound, the MIC (Klebsiella pneumoniae; Klebsiella pneumoniae, anaerobic conditions (Aerobic −)) was 3 µg/mL, the MIC (Serratia marcescens; Ser. marcescens isolate NP402 (first listing)) was 6 parts silver per million and the MIC (Serratia marcescens; Ser. marcescens isolate NP402 (second listing)) was 6 parts silver per million. The MIC (Serratia marcescens; Ser. marcescens isolate NP408 (first listing)) was 6 parts silver per million, the MIC (Serratia marcescens; Ser. marcescens isolate NP408 (second listing)) was 11 parts silver per million and the MIC (Serratia marcescens; Serratia marcescens, aerobic conditions (+)) was 6 µg/mL. The MIC (Serratia marcescens; Serratia marcescens, anaerobic conditions (Aerobic −)) was 13 µg/mL, the MBC (E. coli; E. coli ATCC type strain 8739) was 0.4 parts silver per million and the MBC (E. coli; E. coli ATCC type strain 43745) was 0.4 parts silver per million. The MBC (E. coli; E. coli isolate NP412) was 1 parts silver per million, the MBC (Staph epidermidis; [6]) was 3 parts silver per million and the MBC (Staph epidermidis; [7]) was 3 parts silver per million. It also gave an MIC (Streptococcus pneumoniae; S. pneumo (clin 314)) of 11 µg/mL, an MIC (Streptococcus pneumoniae; S. pneumo (clin 315)) of 21 µg/mL and an MIC (Pseudomonas aeruginosa; P. aerug (ATCC), solutions in 0.1 M lactate buffer pH 4.0) of 3 µg/mL. The MIC (Pseudomonas aeruginosa; P. aerug. (clin.), solutions in 0.1 M lactate buffer pH 4.0) was 3 µg/mL, the “NP212 MIC” value (Pseudomonas aeruginosa; formulation type Lactate) was 2 ppm and the “NP212 MIC” value (Pseudomonas aeruginosa; [8]) was 3 ppm. The “NP212 MIC” value (Pseudomonas aeruginosa; formulation type Water/PVA) was 3 ppm, the “NP213 MIC” value (Pseudomonas aeruginosa; formulation type Lactate) was 1 ppm and the “NP213 MIC” value (Pseudomonas aeruginosa; [8]) was 1 ppm. For the same compound, the “NP213 MIC” value (Pseudomonas aeruginosa; formulation type Water/PVA) was 1 ppm, the “NP214 MIC” value (Pseudomonas aeruginosa; formulation type Lactate) was 1 ppm and the “NP214 MIC” value (Pseudomonas aeruginosa; [8]) was 1 ppm. For the same compound, the “NP214 MIC” value (Pseudomonas aeruginosa; formulation type Water/PVA) was 3 ppm, the MIC (Pseudomonas aeruginosa; Ps. aeruginosa ATCC type strain 9027) was 1 parts silver per million and the MIC (Pseudomonas aeruginosa; [9]) was 2 parts silver per million. For the same compound, the MIC (Pseudomonas aeruginosa; Ps. aeruginosa isolate NP201) was 1 parts silver per million, the MIC (Pseudomonas aeruginosa; Ps. aeruginosa isolate NP204) was 1 parts silver per million and the MIC (Pseudomonas aeruginosa; Ps. aeruginosa isolate NP206) was 1 parts silver per million. For the same compound, the MIC (Burkholderia dolosa; B dolosa isolate A3) was 2 parts silver per million, the MIC (Burkholderia dolosa; B dolosa isolate A4) was 2 parts silver per million and the MIC (Staphylococcus aureus; S. aureus (ATCC), solutions in 0.1 M lactate buffer pH 4.0) was 11 µg/mL. The MIC (Staphylococcus aureus; S. aureus (clin.), solutions in 0.1 M lactate buffer pH 4.0) was 5 µg/mL, the “NP101 MIC” value (Staphylococcus aureus; formulation type Lactate) was 9 ppm and the “NP101 MIC” value (Staphylococcus aureus; [8]) was 11 ppm. The “NP101 MIC” value (Staphylococcus aureus; formulation type Water/PVA) was 11 ppm, the “NP102 MIC” value (Staphylococcus aureus; formulation type Lactate) was 9 ppm and the “NP102 MIC” value (Staphylococcus aureus; [8]) was 11 ppm. For the same compound, the “NP102 MIC” value (Staphylococcus aureus; formulation type Water/PVA) was 11 ppm, the “NP103 MIC” value (Staphylococcus aureus; formulation type Lactate) was 9 ppm and the “NP103 MIC” value (Staphylococcus aureus; [8]) was 11 ppm. The “NP103 MIC” value (Staphylococcus aureus; formulation type Water/PVA) was 11 ppm, the MIC (Staphylococcus aureus; [4]) was 6 parts silver per million and the MIC (Staphylococcus aureus; [5]) was 3 parts silver per million. The MIC (Staphylococcus aureus; Staph. aureus isolate NP101) was 6 parts silver per million, the MIC (Staphylococcus aureus; Staph. aureus isolate NP102) was 6 parts silver per million and the MIC (Staphylococcus aureus; Staph. aureus isolate NP103) was 6 parts silver per million. For the same compound, the MBC (B dolosa; B dolosa isolate A3) was 3 parts silver per million, the MBC (B dolosa; B dolosa isolate A4) was 2 parts silver per million and the MBC (C. freundii) was 3 parts silver per million. The MBC (Prot. mirabilis) was 13 parts silver per million, the MIC (Citrobacter freundii) was 3 parts silver per million and the MIC (Enterobacter cloacae; aerobic conditions (+)) was 13 µg/mL. It also gave an MIC (Enterobacter cloacae; anaerobic conditions (Aerobic −)) of 25 µg/mL, an MIC (Streptococcus pyogenes; S. pyog (clin. 303), solutions in 0.1 M lactate buffer pH 4.0) of 3 µg/mL and an MIC (Streptococcus pyogenes; S. pyog (clin. 304), solutions in 0.1 M lactate buffer pH 4.0) of 5 µg/mL. The MIC (Streptococcus pyogenes; Strep. pyogenes isolate NP303) was 3 parts silver per million, the MIC (Streptococcus pyogenes; Strep. pyogenes isolate NP304) was 6 parts silver per million and the MIC (Streptococcus pyogenes; Strep. pyogenes isolate NP306) was 6 parts silver per million. The MIC (Proteus mirabilis) was 6 parts silver per million, the MBC (Ps. aeruginosa; [9]) was 3 parts silver per million and the MBC (Ps. aeruginosa; Ps. aeruginosa isolate NP201) was 3 parts silver per million. For the same compound, the MBC (Ps. aeruginosa; Ps. aeruginosa isolate NP204) was 3 parts silver per million and the MBC (Ps. aeruginosa; Ps. aeruginosa isolate NP206) was 1 parts silver per million.
